Measured values as given in patent US20080032918A1, “Mast cell-derived renin” (Cornell Research Foundation, Inc., priority 2003, published 2008).
Entries after “also recorded” stand apart in the source; their conditions may differ.

Experiments:
human lung mast cells = conditions: cited from earlier work
Na+/H+ exchanger [1] = assay: Na+/H+ exchanger activity in BCECF-loaded SH-SY5Y-AT1A cells; type: cell-based, human
Procedure: Similarly, Na^+/H^+ exchanger activity was measured in response to angiotensin II at the individual cell level in BCECF-loaded SH-SY5Y-AT1A cells. […] Exposing the cells to BAPTA-AM (10 μM) prior to angiotensin II, prevented the angiotensin II-induced increase in Na^+/H^+ exchanger activity.

Na+/H+ exchanger [2] = assay: Na+/H+ exchanger activity (acid pulse protocol) in cardiac sympathetic nerve endings; type: cell-based, guinea pig; conditions: angiotensin II 10 nM; for increase in Na+/H+ exchanger activity over control: norepinephrine 1 μM
Procedure: Na^+/H^+ exchanger activity was assayed by measuring the rate of Na^+-dependent intracellular alkalinization in response to an acid load (NH4Cl). An example of the “acid pulse protocol” used to show Na^+/H^+exchanger activity in dye-loaded (BCECF-loaded) sympathetic nerve endings from guinea pig heart is shown in FIG. 18A. This protocol was performed under HEPES-buffered conditions. All of the solutions perfusing the tissue were osmotically balanced using N-methyl-D-glucamine substitution as previously described (Silver et al., Am. J. Physiol. Renal Physiol. 279: F195-F202, 2000; Silver et al., Am. J. Physiol. 275: F94-102, 1998). As shown in the representative tracing in FIG. 18A, guinea-pig heart sympathetic nerve endings, attached to a cover slip and pre-loaded with BCECF to monitor intracellular pH, were initially bathed in a balanced salt solution (Na Ringer's solution).
The slope of this alkalinization of Na^+/H^+ exchanger activity, represented by the dashed line in FIG. 18A, was 0.04 pH units/min. […] Mean Na^+/H^+ exchanger activities measured in cardiac sympathetic nerve endings in this pilot study are compared in FIG. 18C.

SH-SY5Y-AT1A cells [3] = assay: intracellular calcium in Fura-2 loaded SH-SY5Y-AT1A cells; type: cell-based, human
Procedure: The next series of experiments were used to outline the major signaling steps in angiotensin II-evoked release of norepinephrine from sympathetic nerve endings. In particular, experiments were designed to ascertain whether stimulation of PLC might result in an increase in intracellular calcium via IP3 generation. Intracellular calcium (Cai) was measured at the individual cell level using Fura-2 loaded SH-SY5Y-AT1A cells (McDonald et al., Neurosci. Lett. 199: 115-118, 1995; Silver et al., Proc. Natl. Acad. Sci. USA 99: 501-506, 2002).
As discussed above, PLC activation may be an early signaling step in mediating this angiotensin II-induced Ca^2+ transient. The PLC inhibitor U-73122 (1 μM) was used to verify this hypothesis. FIG. 21B is a representative trace from one Fura-2 loaded SH-SY5Y-ATIA cell pre-exposed to U-73122.

SH-SY5Y-AT1A cells [4] = assay: [3H]MPP+ release from SH-SY5Y-AT1A cells
Excerpt: Efflux was arrested after 10-min exposure to angiotensin II.

[5] = tested on: cardiac sympathetic nerve endings; assay: angiotensin II-evoked norepinephrine release from cardiac sympathetic nerve endings; conditions: for decrease of angiotensin II-induced norepinephrine release / effect on norepinephrine release induced by angiotensin II (FIG. 20): EIPA 30 μM, U-73122 1 μM; for decrease of angiotensin II-induced norepinephrine release: DMI 300 nM; for effect on norepinephrine release induced by angiotensin II (FIG. 20): DMI 300 μM
Procedure: Briefly, male Hartley guinea pigs were anesthetized with CO2 vapor and then exsanguinated. Hearts were perfused through the aorta for 15 min at constant pressure with Ringer's solution at 37° C. […] Hearts were minced in 0.32 M sucrose containing 1 mM EGTA. The minced tissue was then digested with 75 mg collagenase per 10 ml HBS per gm for 1 hr at 37° C. After low speed centrifugation the resulting pellet were suspended in 10 volumes of 0.32 M sucrose and homogenized with a Teflon/glass homogenizer. The homogenate was centrifuged at 650g for 10 min, the pellet was re-homogenized and the homogenate was centrifuged again. The pellet containing cellular debris was discarded, the supernatants from the last two spins were combined, the pooled supernatant was equally subdivided into 4 to 8 tubes and re-centrifuged for 20 min at 20,000g at 4° C. This pellet contains cardiac sympathetic nerve endings. The pellet was resuspended either in HEPES-buffered saline (HBS; 500 μl, normoxic conditions) or in glucose-free HBS, which contained the reducing agent sodium dithionite (500 μl, ischemic conditions), and incubated in the absence or presence of angiotensinogen (1 hr) or other agents for 20 min at 37° C. prior to ischemia (see below). Each suspension was used only once as an independent sample.
Norepinephrine assay: Coronary effluent and synaptosome supernatant will be assayed for NE by HPLC with electrochemical detection (ESA). […] The detection limit is about 0.2 pmol.

[6] = tested on: cardiac sympathetic nerve endings; assay: norepinephrine release from isolated cardiac sympathetic nerve endings incubated with angiotensinogen; type: cell-based, guinea pig
Excerpt: Preparation ofguinea-pig sympathetic nerve endings: Cardiac sympathetic nerve endings were isolated from guinea-pig hearts as previously described (Seyedi et al., J Pharmacol Exp Ther 290: 656-663, 1999; Seyedi et al., Circ. Res. 81: 774-784, 1997). Spontaneously beating hearts were isolated as previously described by the inventors (Hatta et al., J. Pharmacol. Exp. Ther. 288: 919-927, 1999; Park et al., Circ. Res. 71: 992-1001, 1992). Briefly, male Hartley guinea pigs were anesthetized with CO2 vapor and then exsanguinated. Hearts were perfused through the aorta for 15 min at constant pressure with Ringer's solution at 37° C. (Park et al., Circ. Res. 71: 992-1001, 1992) to exclude blood from the coronary circulation. Hearts were minced in 0.32 M sucrose containing 1 mM EGTA. The minced tissue was then digested with 75 mg collagenase per 10 ml HBS per gm for 1 hr at 37° C. After low speed centrifugation the resulting pellet were suspended in 10 volumes of 0.32 M sucrose and homogenized with a Teflon/glass homogenizer. The homogenate was centrifuged at 650g for 10 min, the pellet was re-homogenized and the homogenate was centrifuged again. The pellet containing cellular debris was discarded, the supernatants from the last two spins were combined, the pooled supernatant was equally subdivided into 4 to 8 tubes and re-centrifuged for 20 min at 20,000g at 4° C. This pellet contains cardiac sympathetic nerve endings. The pellet was resuspended either in HEPES-buffered saline (HBS; 500 μl, normoxic conditions) or in glucose-free HBS, which contained the reducing agent sodium dithionite (500 μl, ischemic conditions), and incubated in the absence or presence of angiotensinogen (1 hr) or other agents for 20 min at 37° C. prior to ischemia (see below). Each suspension was used only once as an independent sample.
Norepinephrine assay: Coronary effluent and synaptosome supernatant will be assayed for NE by HPLC with electrochemical detection (ESA). […]

cardiac mast cells = assay: renin in coronary effluent of normoxic Langendorff-perfused hearts challenged with 48/80; parameters: species or system guinea pig; conditions: lodoxamide 10 μM or BILA 2157 100 nM prior to 48/80
Procedure: Renin was measured in the coronary effluent of normoxic Langendorff-perfused guinea-pig hearts, ex vivo. […] When hearts were perfused with the mast-cell stabilizer lodoxamide (FIG. 9B) or the renin inhibitor BILA2157 prior to 48/80 challenge (FIGS. 9A and B), renin overflow was abolished.

[7] = tested on: isolated normoxic guinea pig hearts; assay: chronotropic response and norepinephrine overflow in normoxic isolated hearts challenged with 48/80; conditions: BILA 2157 100 nM, lodoxamide 30 μM
Excerpt: These findings indicate that cardiac mast cells are capable of releasing active renin, which then leads to local formation of ANG II causing norepinephrine exocytosis.

guinea-pig hearts = assay: ischemia-reperfusion in guinea pig hearts ex vivo (Langendorff); conditions: 20-min global ischemia, 45-min reperfusion, lodoxamide 10 μM; for ventricular fibrillation during reperfusion: BILA2157 100 nM
Procedure: Ischemia-reperfusion in guinea pig hearts ex vivo: Guinea-pig hearts will be perfused for 30 min prior to ischemia. Inamura et al., Circ. Res. 78: 475-481 (1996). Normothermic 20-min global ischemia will be induced by complete cessation of coronary perfusion, followed by 45-min reperfusion. Coronary effluent will be assayed for renin activity and NE.
Guinea-pig hearts were perfused ex vivo at constant pressure in a Langendorff apparatus and subjected to 20-min. stop-flow global ischemia, followed by 45-min. reperfusion (Hatta, E., R. Maruyama, S. J. Marshall, M. Imamura, and R. Levi. Bradykinin promotes ischemic norepinephrine release in guinea pig and human hearts. J. Pharmacol. Exp. Ther. 288: 919-927 (1999)). Surface ECG and coronary flow were continuously monitored; the coronary effluent was assayed for renin activity (i.e., ANG I generated as described herein). There was no detectable renin in the coronary effluent prior to ischemia. With reperfusion, there was significant renin overflow into the coronary effluent accompanied by ventricular fibrillation (VF) (FIG. 12).
Traces in the left panels were recorded at the end of the equilibration period prior to ischemia, showing normal sinus rhythm.

## CC(Cc1ccc(O)cc1)NCC(O)c1cc(O)cc(O)c1 (stereo not drawn) [fenoterol]
Human lung mast cells
  inhibition of human lung mast cell release (histamine): most potent global inhibitors

## CC(=O)OCOC(=O)CN(CC(=O)OCOC(C)=O)c1ccccc1OCCOc1ccccc1N(CC(=O)OCOC(C)=O)CC(=O)OCOC(C)=O [BAPTA-AM]
Na+/H+ exchanger [1]; 10 μM prior to angiotensin II 10 nM
  effect on angiotensin II-induced increase in Na+/H+ exchanger activity: prevented

## angiotensin II (DRVYIHPF; Angiotensin-2; UniProt P01019 25-32, looked up)
Na+/H+ exchanger [2]; control 0.04
  rate of Na+-dependent intracellular alkalinization: 0.19 pH units/min
Na+/H+ exchanger [2]
  increase in Na+/H+ exchanger activity over control: about 6 fold
Na+/H+ exchanger [1]; angiotensin II 10 nM
  increase in Na+-dependent intracellular pH recovery rate: 2.5 fold
SH-SY5Y-AT1A cells [3]; angiotensin II 10 nM, from about 60 nM basal
  intracellular calcium after angiotensin II: 220 nM
SH-SY5Y-AT1A cells [4]; 10-min exposure
  increase in MPP+ release above basal levels: 20%
[5]; angiotensin II 100 nM
  increase in norepinephrine release above basal level: 27%

## CCCc1c2oc(C(=O)O)cc(=O)c2cc2c(=O)cc(C(=O)O)n(CC)c12 [nedocromil sodium]
Human lung mast cells
  inhibition of human lung mast cell release (histamine): poorly inhibit

## N#Cc1cc(NC(=O)C(=O)O)c(Cl)c(NC(=O)C(=O)O)c1 [lodoxamide]
[6]; lodoxamide 10 μM
  norepinephrine release when hearts perfused with stabilizer prior to 48/80: markedly attenuated
Cardiac mast cells
  renin overflow into coronary effluent after 48/80 challenge: abolished; also recorded: markedly diminished
[7]
  chronotropic response to 48/80: markedly abbreviated; also recorded: diminishes the chronotropic response
guinea-pig hearts
  ventricular fibrillation during reperfusion: no ventricular fibrillation; also recorded: prevent ventricular fibrillation
guinea-pig hearts; listed as Lodoxamide
  ventricular fibrillation during reperfusion: prevented ventricular fibrillation
guinea-pig hearts; BILA 2157 100 nM
  renin overflow into coronary effluent on reperfusion: no such increase occurs; also recorded: disappeared from the coronary effluent; also recorded: prevented renin release

## CNCCCN1c2ccccc2CCc2ccccc21 [DMI, desipramine]
[5]
  decrease of angiotensin II-induced norepinephrine release: about 50%
[5]; angiotensin II 100 nM
  effect on norepinephrine release induced by angiotensin II (FIG. 20): blocked

## CCN(c1nc(N)c(C(=O)N=C(N)N)nc1Cl)C(C)C [EIPA, 5-(N-ethyl-N-isopropyl)-amiloride]
[5]
  decrease of angiotensin II-induced norepinephrine release: about 50%
[5]; angiotensin II 100 nM
  effect on norepinephrine release induced by angiotensin II (FIG. 20): blocked

## CC(=O)OC[C@H]1O[C@@H]([S-])[C@H](OC(C)=O)[C@@H](OC(C)=O)[C@@H]1OC(C)=O.CCP(CC)CC.[Au+] [auranofin]
Human lung mast cells
  inhibition of human lung mast cell release (histamine): inhibited

## COc1ccc2c(c1)CC[C@@H]1[C@@H]2CC[C@]2(C)[C@@H](NCCCCCCN3C(=O)C=CC3=O)CC[C@@H]12 [U-73122]
SH-SY5Y-AT1A cells [3]; U-73122 1 μM
  effect on angiotensin II-induced intracellular calcium transient: prevented
[5]
  decrease of angiotensin II-induced norepinephrine release: about 60%
[5]; angiotensin II 100 nM
  effect on norepinephrine release induced by angiotensin II (FIG. 20): blocked

## C[C@H](N[C@@H](CCc1ccccc1)C(=O)O)C(=O)N1CCC[C@H]1C(=O)O [enalaprilat]
[6]; nerve endings incubated with BILA2157 10 nM, enalaprilat 30 nM or EXP 3174 10 nM
  effect on 48/80 potentiation of norepinephrine release: abolished

## NC[C@H](O)c1ccc(O)c(O)c1 [norepinephrine]
Na+/H+ exchanger [2]
  increase in Na+/H+ exchanger activity over control: about 3 fold

## CCCCCCCCCCCCCC(=O)O[C@@H]1[C@@H](C)[C@@]2(O)[C@@H](C=C(CO)C[C@]3(O)C(=O)C(C)=C[C@@H]23)[C@@H]2C(C)(C)[C@]12OC(C)=O [PMA, phorbol 12-myristate 13-acetate]
SH-SY5Y-AT1A cells [4]; 8-min incubation with PMA
  increase in the releasing effect of angiotensin II: 3 fold

## O=C(O)c1cc(=O)c2c(OCC(O)COc3cccc4oc(C(=O)O)cc(=O)c34)cccc2o1 [disodium cromoglycate]
Human lung mast cells
  inhibition of human lung mast cell release (histamine): poorly inhibit
